Data on twelve compounds can be found in US8481749B2, “N-(tetrazol-5-yl)- and N-(triazol-5-yl)arylcarboxamides and their use as herbicides” (Bayer Cropscience AG, priority 2010, dated 2013).

In this assay the test system is Veronica persica. Kind of assay: Pre-emergence herbicidal action against harmful plants. In kind it is in vivo. The following applies: 504 h, application rate 80 g/ha, visual assessment after 3 weeks vs untreated controls (100%=plants have died, 0%=like control), read-out: herbicidal activity in percent against Veronica persica.

On to `CCn1nnnc1NC(=O)c1ccc(C)c(SC)c1Cl` [Compound 5-614], for which the pest or weed control at 80 g/ha is not below 80%.
Next, `C#CCOc1c(S(C)(=O)=O)ccc(C(=O)Nc2nnnn2CC)c1Cl` [Compound 5-676]: not below 80%; `CCSc1c(Cl)ccc(C(=O)Nc2nnnn2CC)c1C` [Compound 5-122]: not below 80%.
Next, `CCn1nnnc1NC(=O)c1ccc(C#N)c(SC)c1C` [Compound 5-392]: not below 80%.
Next, `CCn1nnnc1NC(=O)c1ccc(S(=O)(=O)CC)c(SC)c1C(F)(F)F` [Compound 5-598]: not below 80%; `CCn1nnnc1NC(=O)c1ccc(Cl)c(S(=O)(=O)CC)c1C` [Compound 5-124]: not below 80%.
`CCn1nnnc1NC(=O)c1ccc(C(F)(F)F)c(S(C)(=O)=O)c1C1CC1` [Compound 5-210]: the pest or weed control at 80 g/ha is not below 80%.
As for `CCn1nnnc1NC(=O)c1ccc(S(C)(=O)=O)c(SC)c1C(F)(F)F` [Compound 5-597], the pest or weed control at 80 g/ha was not below 80%.
The same measure for `CCn1nnnc1NC(=O)c1ccc(S(C)(=O)=O)c(OC)c1C` [Compound 5-166]: not below 80%; for `CCn1ncnc1NC(=O)c1ccc(C(F)(F)F)c(S(C)(=O)=O)c1C` [Compound 2-148]: not below 80%.
With `CCCc1c(C(=O)Nc2nnnn2CC)ccc(Cl)c1[S+](C)[O-]` (stereo not drawn) [Compound 5-510], the pest or weed control at 80 g/ha is not below 80%.
The same measure for `CCn1nnnc1NC(=O)c1ccc(S(C)(=O)=O)c(OC)c1Cl` [Compound 5-276]: not below 80%.
